System: 18 h. fasted Wistar rats
Experiment: hypoglycaemic activity in 18 h. fasted Wistar rats
Assay type: in vivo
Description: The compound 8-(C-β-D-glucopyranosyl)-7,3′,4′-trihydroxyflavone has been evaluated for hypoglycaemic activity in 18 h. fasted Wistar rats. […] The mean fall recorded was 24 mg/100 ml. blood, from initial mean of 92 to mean of 68 mg/100 ml. blood.

With `O=c1cc(-c2ccc(O)c(O)c2)oc2c([C@@H]3O[C@H](CO)[C@@H](O)[C@H](O)[C@H]3O)c(O)ccc12` [8-(C-β-D-glucopyranosyl)-7,3′,4′-trihydroxyflavone] as the compound, how does the hypoglycaemic effect (10 mg/kg p. o.) read?
Its hypoglycaemic effect is “hypoglycaemic effect was recorded in all the treated rats”.

And the “mean (blood sugar) after treatment” value (after 10 mg/kg p. o.)?
Its value is 68 mg/100 ml. blood.

What about the “initial mean (blood sugar)” value (before treatment with 10 mg/kg p. o.) of the same compound?
Its value is 92 mg/100 ml. blood.

And the “mean fall (blood sugar)” value (compound at 10 mg/kg p. o.)?
Its value is 24 mg/100 ml. blood.

Source: patent US20030186898A1, “8- (C-beta-D-glucopyranosyl) -7, 3', 4' -trihydroxyflavone, process of isolation thereof, pharmaceutical composition and method for the treatment of diabetes” (priority 2002, published 2003)
